Several values for one entry are separate records, joined by “and”; a condition that tells them apart may be missing. Equal values may be shown once. Read-outs that look alike come from different tables or passages of the source.
How the values were obtained:
EcMutT [1] = target: T1, EcMutT (Escherichia coli, UniProt P08337); assay: biochemical
mtDUT [2] = target: T2, mtDUT (Mycobacterium tuberculosis, UniProt P9WNS5); assay: biochemical; type: binding; set-up: His tag (N); made in house
hDUT [3] = target: T3, hDUT (Homo sapiens, UniProt P33316); conditions: no Mg^2+; for kcat: dUTP hydrolysis, 20 °C, pH 7.5
T3 sequence (P33316 1-164 isoform P33316-2): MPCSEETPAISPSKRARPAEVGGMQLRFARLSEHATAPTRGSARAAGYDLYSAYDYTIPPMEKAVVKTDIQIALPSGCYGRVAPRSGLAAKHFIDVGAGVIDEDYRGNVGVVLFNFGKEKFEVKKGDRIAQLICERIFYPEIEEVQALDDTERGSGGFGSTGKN
Experimental: (§1) Continuous pH indicator-based assays were performed to measure enzyme activity at 20 °C as described in [26]. Briefly, 1 µM protein was used in a buffer pH 7.5 containing 1 mM HEPES, 100 mM KCl and 40 µM phenol red. A Specord 200 (Analytic, Jena, Germany) spectrophotometer and 10-mm-path length cuvettes were used, and absorbance was recorded at 559 nm. Initial velocity was determined from the first 10% of the progress curve. […] Data fitting was accomplished using OriginPro 7.5 (OriginLab Corp, Northampton, MA, USA).

mtDUT [4] = target: T2, mtDUT
Experimental: as §1

Taq polymerase [5] = target: T4, Taq polymerase (Thermus aquaticus, UniProt P19821); assay: biochemical
T4 sequence (P19821 whole entry): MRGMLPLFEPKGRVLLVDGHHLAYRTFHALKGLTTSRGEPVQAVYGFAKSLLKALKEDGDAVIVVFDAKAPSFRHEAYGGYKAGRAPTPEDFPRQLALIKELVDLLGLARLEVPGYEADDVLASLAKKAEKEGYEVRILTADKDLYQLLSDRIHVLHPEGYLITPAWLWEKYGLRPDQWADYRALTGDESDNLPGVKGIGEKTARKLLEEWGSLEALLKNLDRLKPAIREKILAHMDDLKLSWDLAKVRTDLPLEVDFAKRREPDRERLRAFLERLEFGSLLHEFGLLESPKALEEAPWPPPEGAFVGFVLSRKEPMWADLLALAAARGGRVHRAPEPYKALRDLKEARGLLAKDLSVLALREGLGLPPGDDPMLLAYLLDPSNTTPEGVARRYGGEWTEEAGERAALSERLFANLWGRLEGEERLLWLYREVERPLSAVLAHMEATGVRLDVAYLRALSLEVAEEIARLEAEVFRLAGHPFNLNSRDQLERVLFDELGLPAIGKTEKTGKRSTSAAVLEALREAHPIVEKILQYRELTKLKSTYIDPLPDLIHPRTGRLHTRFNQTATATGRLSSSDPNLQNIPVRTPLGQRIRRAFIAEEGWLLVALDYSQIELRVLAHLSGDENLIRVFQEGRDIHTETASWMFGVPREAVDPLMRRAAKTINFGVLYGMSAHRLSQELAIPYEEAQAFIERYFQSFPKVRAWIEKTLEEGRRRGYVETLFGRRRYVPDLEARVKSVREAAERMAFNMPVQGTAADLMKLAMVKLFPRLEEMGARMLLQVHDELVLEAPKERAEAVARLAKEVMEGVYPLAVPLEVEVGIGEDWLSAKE

hDUT [6] = target: T3, hDUT; assay: Isothermal titration calorimetry (ITC); type: binding; set-up: His tag (N); made in house
[7] = EDTA titrated with Mg^2+, pH 7.5, 293 K
hDUT [8] = target: T3, hDUT; assay: Thermofluor stability assay; type: binding; set-up: His tag (N); made in house; conditions: for Tm (5 mM Mg^2+): 5 mM MgCl2
Taq polymerase [9] = target: T4, Taq polymerase; conditions: no Mg^2+, pH 7.5, 293 K
EcMutT [10] = target: T1, EcMutT; conditions: no Mg^2+, pH 7.5, 293 K
[11] = set-up: method as in PMID 9299023; conditions: smallest reported value for the ATP:Mg^2+ complex; read-out: dissociation constant; cited from earlier work
hDUT [12] = target: T3, hDUT; set-up: His tag (N); made in house; method as in PMID 20601405, PMID 17880943, PMID 17848562; conditions: same titration in the presence of Mg^2+; cited from earlier work
hDUT [13] = target: T3, hDUT; set-up: His tag (N); made in house; method as in PMID 18519027, PMID 17848562; conditions: dUTP hydrolysis; 5 mM Mg^2+, no EDTA; reported previously ref 20, 51; cited from earlier work
mtDUT [14] = target: T2, mtDUT; conditions: cited from earlier work
[15] = no Mg^2+, pH 7.5, 293 K, average and SD
[16] = apparent, no Mg^2+, pH 7.5, 293 K, average and SD
[17] = fit of the titration shown in Figure S1B, no Mg^2+
[18] = fit of the titration shown in Figure S1A, no Mg^2+
[19] = hDUT complexed with ligand (100 µM dUPNPP or 1 mM dUMP)

T1 sequence (P08337 whole entry): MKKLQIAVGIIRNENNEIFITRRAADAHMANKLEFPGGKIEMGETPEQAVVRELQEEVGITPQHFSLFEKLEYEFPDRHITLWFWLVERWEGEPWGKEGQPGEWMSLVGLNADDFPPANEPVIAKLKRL
T2 sequence (P9WNS5 whole entry): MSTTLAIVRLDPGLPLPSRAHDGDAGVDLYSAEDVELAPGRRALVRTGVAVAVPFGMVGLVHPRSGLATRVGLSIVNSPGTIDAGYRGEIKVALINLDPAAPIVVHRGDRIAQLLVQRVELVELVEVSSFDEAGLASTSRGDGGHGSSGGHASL

## O=C(O)CN(CCN(CC(=O)O)CC(=O)O)CC(=O)O [EDTA, ethylene diamine tetraacetic acid]
EcMutT [1]
  Kd: 0.55 ± 0.066 µM
mtDUT [2]
  Kd: 0.078 µM
mtDUT [2]; [15]
  ΔG: -9.6 ± 0.2 kcal/mol
  ΔH: -4.2 ± 1.0 kcal/mol
  −TΔS: -5.3 ± 1.2 kcal/mol
hDUT [3]; 30 µM EDTA
  KM increase: 2.7 fold
  kcat: 3.30 ± 0.26 s⁻¹
hDUT [3]; 100 µM EDTA
  kcat decreased to: 6%
  kcat: 0.24 ± 0.03 s⁻¹
mtDUT [4]
  KM increase: 3.7 fold
Taq polymerase [5]
  Kd: 0.047 µM
hDUT [6]; absence of Mg^2+
  Kd: 0.199 µM
hDUT [6]; [16]
  Kd: 0.2 ± 0.009 µM
hDUT [6]; [15]
  ΔG: -9.0 ± 0.0 kcal/mol
  ΔH: -11.2 ± 0.4 kcal/mol
  −TΔS: 2.2 ± 0.4 kcal/mol
[7]
  ΔG: -8.0 ± 0.9 kcal/mol
  ΔH: 4.4 ± 0.3 kcal/mol
  −TΔS: -12.5 ± 0.6 kcal/mol
[7]; apparent
  Kd: 2.53 ± 0.18 µM
hDUT [8]; apo hDUT
  Tm (100 µM EDTA): 58.5 ± 0.1 °C
Taq polymerase [9]
  ΔG: -9.8 ± 0.0 kcal/mol
  ΔH: -6.3 ± 0.7 kcal/mol
  −TΔS: -3.5 ± 0.7 kcal/mol
EcMutT [10]
  ΔG: -8.4 ± 0.1 kcal/mol
  ΔH: -9.7 ± 0.02 kcal/mol
  −TΔS: 1.3 ± 0.1 kcal/mol

## Nc1ncnc2c1ncn2[C@@H]1O[C@H](COP(=O)(O)OP(=O)(O)OP(=O)(O)O)[C@@H](O)[C@H]1O [ATP]
[11]
  Kd: 46.3 µM

## O=c1ccn([C@H]2C[C@H](O)[C@@H](COP(=O)(O)NP(=O)(O)OP(=O)(O)O)O2)c(=O)[nH]1 [dUPNPP]
mtDUT [2]
  n (stoichiometry): 1
mtDUT [2]; [17]
  ΔG: –6.2 kcal/mol
  ΔH: –4.4 kcal/mol
  –TΔS: –1.8 kcal/mol
mtDUT [2]; [15]
  ΔH: -4.5 ± 0.2 kcal/mol
  −TΔS: -2.1 ± 0.4 kcal/mol
hDUT [12]
  Kd: 2 to 7 µM
hDUT [6]; [16]
  Kd: 44 µM and 43.9 µM
hDUT [6]; [18]
  Kd: 54 µM
  n (stoichiometry): 0.41
  ΔG: –5.7 kcal/mol
  ΔH: –19.9 kcal/mol
  –TΔS: 14.1 kcal/mol
hDUT [6]; [15]
  ΔG: -5.9 ± 0.2 kcal/mol
  ΔH: -17.4 ± 3.6 kcal/mol
  −TΔS: 11.5 ± 3.7 kcal/mol
hDUT [8]; [19]
  Tm (100 µM EDTA): 58.3 ± 0.1 °C
  Tm (5 mM Mg^2+): 63.9 ± 0.3 °C
  Tm (No Mg^2+, no EDTA): 59.1 ± 0.2 °C

## O=c1ccn([C@H]2C[C@H](O)[C@@H](COP(=O)(O)O)O2)c(=O)[nH]1 [dUMP]
hDUT [8]; [19]
  Tm (100 µM EDTA): 58.7 ± 0.1 °C
  Tm (5 mM Mg^2+): 62.3 ± 0.1 °C
  Tm (No Mg^2+, no EDTA): 59.7 ± 0.1 °C

## [Mg+2] [Mg^2+]
hDUT [8]; apo hDUT
  Tm (5 mM Mg^2+): 59.5 ± 0.3 °C
hDUT [8]; apo hDUT, 5 mM Mg^2+ vs no Mg^2+
  increase of melting temperature in the presence of Mg^2+: 0.9 °C
hDUT [13]
  Km: 2.26 ± 0.33 µM
  kcat: 5.27 ± 0.24 s⁻¹
mtDUT [14]
  kcat: 2.39 ± 0.16 s⁻¹
mtDUT [14]; dUTP hydrolysis, 5 mM Mg^2+, no EDTA, reported previously ref 20, 51
  Km: 1.72 ± 0.51 µM
